Assay results taken from patent publication US20020137929A1, “1 - (3-heterocyclylphenyl) isothiourea, -isourea, -guanidine and -amidine herbicidal agents” (Intellectual Property Department, BASF Aktiengesellschaft, priority 1998, published 2002).

How the values were obtained:
AMBEL (Ragweed, Common) [1] = assay: Postemergence herbicidal evaluation; assay type: in vivo, Ambrosia artemisifolia
How it was run: (§1)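 Rate range approx. 0.0156–0.500 kg/ha. Foliar application at 40 psi to ~2-week seedlings; surfactant 0.5% TWEEN 20 in 50/50 acetone/water. Evaluation 4–5 wk post-treatment by 0–9 visual injury score, means of replicate tests.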

[2] = test system: IPOHE (Morningglory, Ivyleaf); assay: Postemergence herbicidal evaluation; assay type: in vivo, Ipomoea hederacea
How it was run: as §1

[3] = test system: GLXMAW (Soybean, Williams); assay: Postemergence herbicidal evaluation; assay type: in vivo, Glycine max, (L.) Merr. cv Williams
How it was run: as §1

ZEAMX (Corn, Field) = assay: Postemergence herbicidal evaluation; assay type: in vivo, Zea mays
How it was run: as §1

ABUTH (Velvetleaf) = assay: Preemergence herbicidal evaluation; assay type: in vivo, Abutilon theophrasti; conditions: rated 4-5 weeks after treatment
How it was run: (§2)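 Preemergence soil application of compound, sprayed in aqueous acetone at rates equivalent to about 0.0156 to 0.500 kg per hectare onto freshly sown cups. Plant response was judged by eye on a 0-9 scale four to five weeks later.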

AMBEL (Ragweed, Common) [4] = assay: Preemergence herbicidal evaluation; assay type: in vivo, Ambrosia artemisifolia; conditions: rated 4-5 weeks after treatment
How it was run: as §2

CASOB (Sicklepod) = assay: Preemergence herbicidal evaluation; assay type: in vivo, Cassia obtusifolia; conditions: rated 4-5 weeks after treatment
How it was run: as §2

GALAP (Galium) = assay: Preemergence herbicidal evaluation; assay type: in vivo, Galium aparine; conditions: rated 4-5 weeks after treatment
How it was run: as §2

ECHCG (Barnyardgrass) = assay: Preemergence herbicidal evaluation; assay type: in vivo, Echinochloa crus-galli; conditions: rated 4-5 weeks after treatment
How it was run: as §2

SETVI (Foxtail, Green) = assay: Preemergence herbicidal evaluation; assay type: in vivo, Setaria viridis; conditions: rated 4-5 weeks after treatment
How it was run: as §2

[5] = test system: GLXMAW (Soybean, Williams); assay: Preemergence herbicidal evaluation; assay type: in vivo, Glycine max, (L.) Merr. cv Williams; conditions: rated 4-5 weeks after treatment
How it was run: as §2

CYPSE (Flatsedge) = assay: Preemergence weed control under flooded paddy conditions; assay type: in vivo, Cyperus serotinus; conditions: rated 3-4 weeks after treatment
How it was run: (§3)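 Visual injury scored 0-9 against control three to four weeks post-treatment, greenhouse-grown. Application: acetone/water (50/50) solutions dosed directly into flood water (1.5-3 cm over silt loam, planted top 0.5 cm), roughly 0.0313 to 0.500 kg/ha active ingredient.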

[6] = test system: SAGPY (Arrowhead (Pygmaea)); assay: as above; assay type: in vivo, Sagittaria pygmaea; conditions: rated 3-4 weeks after treatment
How it was run: as §3

[7] = test system: ECHORC (Watergrass (Calif.)); assay: Postemergence weed control under flooded paddy conditions; assay type: in vivo, Echinochloa oryzoides; conditions: postemergence weeds
How it was run: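 Weeds 3 to 5 cm tall and rice seedlings at the 1.5 to 2.5 leaf stage were flooded, with water held 1.5 to 3 cm above the soil. Compounds in 50/50 v/v aqueous/acetone went into the flood water at about 0.0313 to 0.500 kg/ha. Visual 0-9 ratings versus control were made 3 to 4 weeks later.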

C#CCOC(=O)CC1SC(=Nc2cc(-n3c(=O)cc(C(F)(F)F)n(C)c3=O)c(F)cc2Cl)N(CC(=O)OCC)C1=O (centres unmarked) [Compound 59, 2-{{2-Chloro-5-[3,6-dihydro-3-methyl-2,6-dioxo-4-(trifluoromethyl)-1(2H)-pyrimidinyl]-4-fluorophenyl}imino}-4-oxo-3,5-thiazolidinediacetic acid, 3-ethyl (2-propynyl) ester]
2.0: Preemergence herbicidal rating ABUTH (ABUTH (Velvetleaf); rate 0.0156 kg/ha) | Preemergence herbicidal rating AMBEL (AMBEL (Ragweed, Common) [4]; rate 0.0156 kg/ha) | Preemergence herbicidal rating CASOB (CASOB (Sicklepod); rate 0.0625 kg/ha) | Preemergence herbicidal rating ECHCG (ECHCG (Barnyardgrass); rate 0.1250 kg/ha)
9.0: Postemergence herbicidal rating AMBEL (AMBEL (Ragweed, Common) [1]; Rate 0.0158 kg/ha) | Postemergence herbicidal rating AMBEL (AMBEL (Ragweed, Common) [1]; Rate 0.0315 kg/ha) | Postemergence herbicidal rating AMBEL (AMBEL (Ragweed, Common) [1]; Rate 0.0630 kg/ha) | Postemergence herbicidal rating IPOHE ([2]; Rate 0.0158 kg/ha) | Postemergence herbicidal rating IPOHE ([2]; Rate 0.0315 kg/ha) | Postemergence herbicidal rating IPOHE ([2]; Rate 0.0630 kg/ha) | Postemergence herbicidal rating GLXMAW ([3]; Rate 0.0315 kg/ha) | Postemergence herbicidal rating GLXMAW ([3]; Rate 0.0630 kg/ha) | Preemergence herbicidal rating ABUTH (ABUTH (Velvetleaf); rate 0.1250 kg/ha) | Preemergence herbicidal rating ABUTH (ABUTH (Velvetleaf); rate 0.2500 kg/ha) | Preemergence herbicidal rating ABUTH (ABUTH (Velvetleaf); rate 0.5000 kg/ha) | Preemergence herbicidal rating AMBEL (AMBEL (Ragweed, Common) [4]; rate 0.1250 kg/ha) | Preemergence herbicidal rating AMBEL (AMBEL (Ragweed, Common) [4]; rate 0.2500 kg/ha) | Preemergence herbicidal rating AMBEL (AMBEL (Ragweed, Common) [4]; rate 0.5000 kg/ha) | Preemergence herbicidal rating CASOB (CASOB (Sicklepod); rate 0.5000 kg/ha) | Preemergence herbicidal rating GALAP (GALAP (Galium); rate 0.2500 kg/ha) | Preemergence herbicidal rating ECHCG (ECHCG (Barnyardgrass); rate 0.5000 kg/ha) | Preemergence herbicidal rating SETVI (SETVI (Foxtail, Green); rate 0.2500 kg/ha) | Preemergence herbicidal rating SETVI (SETVI (Foxtail, Green); rate 0.5000 kg/ha) | Preemergence herbicidal rating GLXMAW ([5]; rate 0.5000 kg/ha)
0.0: Preemergence herbicidal rating CASOB (CASOB (Sicklepod); rate 0.0156 kg/ha) | Preemergence herbicidal rating CASOB (CASOB (Sicklepod); rate 0.0313 kg/ha) | Preemergence herbicidal rating GALAP (GALAP (Galium); rate 0.0156 kg/ha) | Preemergence herbicidal rating GALAP (GALAP (Galium); rate 0.0313 kg/ha) | Preemergence herbicidal rating ECHCG (ECHCG (Barnyardgrass); rate 0.0156 kg/ha) | Preemergence herbicidal rating ECHCG (ECHCG (Barnyardgrass); rate 0.0313 kg/ha) | Preemergence herbicidal rating SETVI (SETVI (Foxtail, Green); rate 0.0156 kg/ha) | Preemergence herbicidal rating SETVI (SETVI (Foxtail, Green); rate 0.0313 kg/ha) | CYPSE herbicidal effect rating (CYPSE (Flatsedge); 0.0625 kg/ha) | CYPSE herbicidal effect rating (CYPSE (Flatsedge); 0.1250 kg/ha) | SAGPY herbicidal effect rating ([6]; 0.0625 kg/ha) | SAGPY herbicidal effect rating ([6]; 0.1250 kg/ha)
6.5: Preemergence herbicidal rating AMBEL (AMBEL (Ragweed, Common) [4]; rate 0.0625 kg/ha)
1.5: Preemergence herbicidal rating SETVI (SETVI (Foxtail, Green); rate 0.0625 kg/ha)
8.5: Postemergence herbicidal rating ZEAMX (ZEAMX (Corn, Field); Rate 0.0630 kg/ha) | Preemergence herbicidal rating ABUTH (ABUTH (Velvetleaf); rate 0.0625 kg/ha)
4.0: Preemergence herbicidal rating GLXMAW ([5]; rate 0.1250 kg/ha) | Herbicidal rating ECHORC ([7]; Rate 0.0625 kg/ha, rated 3 to 4 weeks after treatment)
1.0: Preemergence herbicidal rating GLXMAW ([5]; rate 0.0156 kg/ha) | Preemergence herbicidal rating GLXMAW ([5]; rate 0.0625 kg/ha)
3.5: Preemergence herbicidal rating AMBEL (AMBEL (Ragweed, Common) [4]; rate 0.0313 kg/ha)
7.5: Postemergence herbicidal rating ZEAMX (ZEAMX (Corn, Field); Rate 0.0158 kg/ha) | Preemergence herbicidal rating CASOB (CASOB (Sicklepod); rate 0.2500 kg/ha)
3.0: SAGPY herbicidal effect rating ([6]; 0.2500 kg/ha)
7.0: Preemergence herbicidal rating CASOB (CASOB (Sicklepod); rate 0.1250 kg/ha) | Preemergence herbicidal rating GALAP (GALAP (Galium); rate 0.1250 kg/ha) | Preemergence herbicidal rating GLXMAW ([5]; rate 0.2500 kg/ha) | CYPSE herbicidal effect rating (CYPSE (Flatsedge); 0.2500 kg/ha) | Herbicidal rating ECHORC ([7]; rate 0.2500 kg/ha, 3-4 weeks after treatment)
0.5: Preemergence herbicidal rating ECHCG (ECHCG (Barnyardgrass); rate 0.0625 kg/ha) | Preemergence herbicidal rating GLXMAW ([5]; rate 0.0313 kg/ha)
5.0: Herbicidal rating ECHORC ([7]; rate 0.1250 kg/ha, 3-4 weeks after treatment)
8.0: Postemergence herbicidal rating GLXMAW ([3]; Rate 0.0158 kg/ha) | Postemergence herbicidal rating ZEAMX (ZEAMX (Corn, Field); Rate 0.0315 kg/ha) | Preemergence herbicidal rating SETVI (SETVI (Foxtail, Green); rate 0.1250 kg/ha)
6.0: Preemergence herbicidal rating ABUTH (ABUTH (Velvetleaf); rate 0.0313 kg/ha) | Preemergence herbicidal rating GALAP (GALAP (Galium); rate 0.0625 kg/ha) | Preemergence herbicidal rating ECHCG (ECHCG (Barnyardgrass); rate 0.2500 kg/ha)
